Tests used:
NaV1.7 = assay: In vivo Nav1.7 repression in mice DRG (L4-L6) by qPCR after intrathecal AAV9; set-up: species or system mouse; conditions: gabapentin benchmarking experiment; 24 h after carrageenan; vs AAV9-mCherry
Protocol: (§1) Intrathecal AAV Injections. Anesthesia was induced with 2.5% isoflurane delivered in equal parts O2 and room air in a closed chamber until a loss of the righting reflex was observed. The lower back of mice was shaven and swabbed with 70% ethanol. Mice were then intrathecally (i.t.) injected using a Hamilton syringe and 30G needle as previously described 104 between vertebrae L4 and L5 with 5 μL of AAV for a total of 1E+12 vg/mouse. A tail flick was considered indicative of appropriate needle placement. Following injection, all mice resumed motor activity consistent with that observed prior to i.t. injection.
Tissue collection. […]
Gene Expression Analysis and qPCR. […] Relative mRNA expression was normalized to GAPDH levels and fold change was calculated using the comparative CT (AACT) method and normalized to GAPDH. Mean fold change and SD were calculated using Microsoft Excel.
Having established in vitro Nav1.7 repression, testing the effectiveness of the best ZFP-KRAB and KRAB-dCas9 constructs from the in vitro screens (Zinc-Finger-4-KRAB and KRAB-dCas9-dual-gRNA) in a carrageenan-induced model of inflammatory pain was performed. […] After 21 days, thermal pain sensitivity was measured to establish a baseline response threshold. […]

[1] = test system: paclitaxel-induced neuropathy; assay: Paclitaxel-induced neuropathic pain model, tactile allodynia (von Frey filaments); format: in vivo, mouse; conditions: 21 days after i.t. injection, 24 h after last paclitaxel (4 x 8 mg/kg i.p.); gabapentin 100 mg/kg i.p.
Protocol: as §1
Paclitaxel-induced neuropathy: Paclitaxel (Tocris Biosciences, 1097) was dissolved in a mixture of 1:1:18 [1 volume ethanol/1 volume Cremophor EL (Millipore, 238470)/18 volumes of sterilized 0.9% (W/V) NaCl solution]. […]
Tactile allodynia: For the BzATP pain model, tactile thresholds (allodynia) were assessed 30 minutes, 1, 2, 3, 6, 24 hours after the BzATP injection. For the Paclitaxel model, tactile thresholds (allodynia) were assessed 24 hours and 29 days after the last Paclitaxel injection. […] The 50% probability of withdrawal threshold was assessed using von Frey filaments (Seemes Weinstein von Frey anesthesiometer; Stoelting Co., Wood Dale, Ill., USA) ranging from 2.44 to 4.31 (0.04-2.00 g) in an up-down method, as previously described 107. […]

[2] = test system: carrageenan-induced model of inflammatory pain; assay: Carrageenan-induced inflammatory pain model, thermal paw withdrawal latency (Hargreaves test); format: in vivo, mouse; conditions: gabapentin 100 mg/kg i.p.
Protocol: Animals Experiments. All animal procedures were performed in accordance with protocols approved by the Institutional Animal Care and Use Committee (IACUC) of the University of California, San Diego. All mice were acquired from Jackson Laboratory. Two-month-old adult male C57BL/6 mice (25-30 g) were housed with food and water provided ad libitum, under a 12 h light/dark cycle with up to 5 mice per cage. All behavioral tests were performed during the light cycle period.
as §1, with “Following injection, all mice resumed motor activity consistent with that observed prior to i.t. injection.” left out
Pain Models. […] Paw thickness was measured with a caliper before and 4 h after carrageenan/saline injections as an index of edema/inflammation. […]
Thermal Withdrawal Latency (Hargreaves Test): To determine the acute nociceptive thermal threshold, the Hargreaves' test was conducted using a plantar test device (Ugo Basile, Italy) 108. […] Paw withdrawal latencies were measured with a cutoff time of 30 seconds. […]

Nav1.7 transcript = assay: In vitro Nav1.7 repression by qPCR in transfected Neuro2a cells; format: cell-based, mouse; conditions: qPCR relative to GAPDH, KRAB-dCas9 constructs compared to the non-targeting gRNA control
Protocol: Mammalian Cell Culture. Neuro2a cells were grown in EMEM supplemented with 10% fetal bovine serum (FBS) and 1% Antibiotic-Antimycotic (Thermo Fisher Scientific) in an incubator at 37° C. and 5% CO2 atmosphere.
Lipid-Mediated Cell Transfections. One day prior to transfection, Neuro2a cells were seeded in a 24-well plate at a cell density of 1 or 2E+5 cells per well. […] of each plasmid was added to 25 μL of Opti-MEM medium, followed by addition of 25 μL of Opti-MEM containing 2 μL of Lipofectamine 2000. The mixture was incubated at room temperature for 15 min. The entire solution was then added to the cells in a 24-well plate and mixed by gently swirling the plate. Media was changed after 24 h, and the plate was incubated at 37° C. for 72 h in a 5% CO2 incubator. Cells were harvested, spun down, and frozen at […].
Gene Expression Analysis and qPCR. RNA from Neuro2a cells was extracted using Rneasy Kit (QIAGEN; 74104) and from DRG using Rneasy Micro Kit (QIAGEN; 74004). cDNA was synthesized from RNA using Protoscript II Reverse Transcriptase Kit (NEB; E6560L). […] Relative mRNA expression was normalized to GAPDH levels and fold change was calculated using the comparative CT (AACT) method and normalized to GAPDH. Mean fold change and SD were calculated using Microsoft Excel. […]

Compound	repression of Nav1.7 in DRG (L4-L6) by qPCR, significance (NaV1.7)	50% tactile withdrawal threshold / tactile allodynia (von Frey) [1]	PWL of carrageenan-injected paws at each time point vs AAV9-mCherry control (two-way ANOVA) ([2]; 30 min, 1, 2, 4, 24 h after carrageenan, AAV9 1E+12 vg/mouse i.t.)	PWL (AUC of thermal hyperalgesia) in carrageenan-injected paws vs AAV9-mCherry control ([2]; gabapentin benchmarking experiment, day 21)	repression of the Nav1.7 transcript (Nav1.7 transcript) [%]
NCC1(CC(=O)O)CCCCC1 [gabapentin]	significant repression of Nav1.7	increased withdrawal thresholds	at the 30 minute, 1 hour, and four hour time points, but not the 24 hour time point	significant increase in PWL	–
gRNA-2: guide RNA spacer GCAGGTGCACTCACCGGGT (SEQ ID NO: 130), used with KRAB-dCas9 (listed as DNA, chemistry not given here)	–	–	–	–	56
